Assays:
[1] = molecular target: Activated CDC42 kinase 1 (Homo sapiens) (UniProt Q07912); details: Compound concentration 1000.0 nM
[2] = molecular target: Activin receptor type-1B (Homo sapiens) (UniProt P36896); details: Compound concentration 1000.0 nM
[3] = molecular target: Beta-1 adrenergic receptor (Homo sapiens) (UniProt P08588); details: Compound concentration 10.0 uM
[4] = molecular target: MAP kinase-interacting serine/threonine-protein kinase 2 (Homo sapiens) (UniProt Q9HBH9); details: Compound concentration 1000.0 nM
[5] = system: Phosphatidylinositol 4,5-bisphosphate 3-kinase catalytic subunit alpha isoform (Homo sapiens), P42336 [I800L]; details: Compound concentration 1000.0 nM
[6] = system: Mast/stem cell growth factor receptor Kit (Homo sapiens), P10721 [L576P]; details: Compound concentration 1000.0 nM
[7] = molecular target: 5-hydroxytryptamine receptor 6 (Homo sapiens) (UniProt P50406); details: Compound concentration 10.0 uM
Sequence of 5-hydroxytryptamine receptor 6 (Homo sapiens) (P50406 whole entry): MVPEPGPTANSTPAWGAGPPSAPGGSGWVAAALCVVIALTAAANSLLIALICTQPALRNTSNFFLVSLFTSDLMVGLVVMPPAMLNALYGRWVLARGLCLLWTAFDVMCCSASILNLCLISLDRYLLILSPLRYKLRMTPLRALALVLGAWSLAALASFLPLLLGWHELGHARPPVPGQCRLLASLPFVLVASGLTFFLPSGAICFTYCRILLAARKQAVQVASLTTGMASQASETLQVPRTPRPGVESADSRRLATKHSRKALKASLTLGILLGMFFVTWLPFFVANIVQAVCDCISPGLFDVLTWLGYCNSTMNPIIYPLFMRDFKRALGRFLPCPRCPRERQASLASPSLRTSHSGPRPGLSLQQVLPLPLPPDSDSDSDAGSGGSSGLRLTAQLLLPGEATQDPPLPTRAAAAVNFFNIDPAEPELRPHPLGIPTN

[8] = molecular target: Serine/threonine-protein kinase ULK3 (Homo sapiens) (UniProt Q6PHR2); details: Compound concentration 1000.0 nM
[9] = molecular target: Serine/threonine-protein kinase SIK3 (Homo sapiens) (UniProt Q9Y2K2); details: Compound concentration 1000.0 nM
[10] = molecular target: Cyclin-dependent kinase 15 (Homo sapiens) (UniProt Q96Q40); details: Compound concentration 1000.0 nM
Sequence of Cyclin-dependent kinase 15 (Homo sapiens) (Q96Q40 whole entry): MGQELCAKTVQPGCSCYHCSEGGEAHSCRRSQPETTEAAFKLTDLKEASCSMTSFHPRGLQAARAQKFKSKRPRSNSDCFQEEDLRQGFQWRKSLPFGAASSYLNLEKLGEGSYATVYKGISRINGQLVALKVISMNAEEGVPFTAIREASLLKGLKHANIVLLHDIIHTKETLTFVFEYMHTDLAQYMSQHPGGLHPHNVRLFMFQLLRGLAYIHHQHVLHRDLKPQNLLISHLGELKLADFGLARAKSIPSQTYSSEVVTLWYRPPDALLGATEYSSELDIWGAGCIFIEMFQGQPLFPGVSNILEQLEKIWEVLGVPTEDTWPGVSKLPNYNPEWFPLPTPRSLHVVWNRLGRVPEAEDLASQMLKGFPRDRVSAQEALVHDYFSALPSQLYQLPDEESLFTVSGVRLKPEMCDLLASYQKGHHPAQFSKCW

[11] = molecular target: Cyclin-dependent kinase-like 5 (Homo sapiens) (UniProt O76039); details: Compound concentration 1000.0 nM
Sequence of Cyclin-dependent kinase-like 5 (Homo sapiens) (O76039 whole entry): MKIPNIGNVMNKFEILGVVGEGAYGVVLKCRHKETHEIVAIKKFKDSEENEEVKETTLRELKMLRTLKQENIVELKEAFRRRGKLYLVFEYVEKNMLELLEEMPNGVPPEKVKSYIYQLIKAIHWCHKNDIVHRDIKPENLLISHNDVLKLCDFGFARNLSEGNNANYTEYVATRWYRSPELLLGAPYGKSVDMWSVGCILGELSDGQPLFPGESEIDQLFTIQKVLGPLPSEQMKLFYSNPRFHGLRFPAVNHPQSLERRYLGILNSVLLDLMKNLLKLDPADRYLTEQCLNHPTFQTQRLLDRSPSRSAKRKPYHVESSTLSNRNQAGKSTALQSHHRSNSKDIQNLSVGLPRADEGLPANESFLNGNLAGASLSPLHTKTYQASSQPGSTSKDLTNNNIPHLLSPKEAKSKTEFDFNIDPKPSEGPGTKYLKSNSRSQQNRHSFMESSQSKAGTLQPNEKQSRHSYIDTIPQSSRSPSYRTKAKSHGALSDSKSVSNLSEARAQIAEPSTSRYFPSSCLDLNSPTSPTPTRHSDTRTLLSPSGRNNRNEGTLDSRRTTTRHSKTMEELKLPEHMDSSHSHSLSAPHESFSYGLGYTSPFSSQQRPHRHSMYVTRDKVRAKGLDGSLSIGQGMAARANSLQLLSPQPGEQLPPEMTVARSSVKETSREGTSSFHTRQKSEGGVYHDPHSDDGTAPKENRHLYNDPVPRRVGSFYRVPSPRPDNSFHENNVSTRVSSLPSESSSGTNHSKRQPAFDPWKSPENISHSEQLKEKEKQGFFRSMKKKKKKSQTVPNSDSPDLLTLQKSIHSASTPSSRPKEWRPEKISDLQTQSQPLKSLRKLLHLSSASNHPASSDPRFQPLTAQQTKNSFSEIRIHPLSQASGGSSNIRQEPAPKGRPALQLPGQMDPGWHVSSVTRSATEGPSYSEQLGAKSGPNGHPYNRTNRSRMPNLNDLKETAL

[12] = molecular target: NUAK family SNF1-like kinase 2 (Homo sapiens) (UniProt Q9H093); details: Compound concentration 1000.0 nM
[13] = molecular target: Vascular endothelial growth factor receptor 1 (Homo sapiens) (UniProt P17948); details: Compound concentration 1000.0 nM
[14] = molecular target: 5-hydroxytryptamine receptor 5A (Homo sapiens) (UniProt P47898); details: Compound concentration 10.0 uM
[15] = system: Epidermal growth factor receptor (Homo sapiens), P00533 [UNDEFINED MUTATION]; details: Compound concentration 1000.0 nM
[16] = molecular target: Interleukin-1 receptor-associated kinase 4 (Homo sapiens) (UniProt Q9NWZ3); details: Compound concentration 1000.0 nM
[17] = system: Mast/stem cell growth factor receptor Kit (Homo sapiens), P10721 [D816V]; details: Compound concentration 1000.0 nM
[18] = system: Proto-oncogene tyrosine-protein kinase receptor Ret (Homo sapiens), P07949 [V804L]; details: Compound concentration 1000.0 nM
Sequence of Proto-oncogene tyrosine-protein kinase receptor Ret (Homo sapiens), P07949 [V804L] (P07949 whole entry V804L): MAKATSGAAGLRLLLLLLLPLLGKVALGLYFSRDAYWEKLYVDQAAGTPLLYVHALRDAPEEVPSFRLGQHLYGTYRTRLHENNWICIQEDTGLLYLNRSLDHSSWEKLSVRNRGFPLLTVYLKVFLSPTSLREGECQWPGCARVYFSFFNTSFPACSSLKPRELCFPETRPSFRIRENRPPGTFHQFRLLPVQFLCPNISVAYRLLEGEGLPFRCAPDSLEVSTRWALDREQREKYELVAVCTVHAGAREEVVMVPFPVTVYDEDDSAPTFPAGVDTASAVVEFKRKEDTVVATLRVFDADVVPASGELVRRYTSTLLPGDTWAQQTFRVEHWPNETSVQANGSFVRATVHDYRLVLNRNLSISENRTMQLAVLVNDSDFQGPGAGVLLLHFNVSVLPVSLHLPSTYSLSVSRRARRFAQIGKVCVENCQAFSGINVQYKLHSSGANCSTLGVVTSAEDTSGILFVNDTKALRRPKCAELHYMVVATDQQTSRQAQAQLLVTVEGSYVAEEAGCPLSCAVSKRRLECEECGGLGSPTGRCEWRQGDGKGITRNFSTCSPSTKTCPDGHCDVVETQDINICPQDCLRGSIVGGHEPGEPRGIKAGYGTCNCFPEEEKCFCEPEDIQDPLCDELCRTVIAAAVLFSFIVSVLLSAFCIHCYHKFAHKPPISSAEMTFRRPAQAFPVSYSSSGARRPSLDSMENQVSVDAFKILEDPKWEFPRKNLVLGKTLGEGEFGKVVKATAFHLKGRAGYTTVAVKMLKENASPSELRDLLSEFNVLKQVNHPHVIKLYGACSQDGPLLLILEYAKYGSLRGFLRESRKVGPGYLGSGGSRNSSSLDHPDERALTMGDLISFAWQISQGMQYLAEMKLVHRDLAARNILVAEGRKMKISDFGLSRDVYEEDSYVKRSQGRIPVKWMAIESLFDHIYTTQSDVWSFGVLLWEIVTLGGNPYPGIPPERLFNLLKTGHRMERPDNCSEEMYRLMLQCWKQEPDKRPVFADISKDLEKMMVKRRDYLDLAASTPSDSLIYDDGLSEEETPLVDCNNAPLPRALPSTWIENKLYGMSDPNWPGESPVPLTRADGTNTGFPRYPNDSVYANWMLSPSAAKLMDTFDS

[19] = molecular target: Calcium/calmodulin-dependent protein kinase type 1 (Homo sapiens) (UniProt Q14012); details: Compound concentration 1000.0 nM
Sequence of Calcium/calmodulin-dependent protein kinase type 1 (Homo sapiens) (Q14012 whole entry, looked up): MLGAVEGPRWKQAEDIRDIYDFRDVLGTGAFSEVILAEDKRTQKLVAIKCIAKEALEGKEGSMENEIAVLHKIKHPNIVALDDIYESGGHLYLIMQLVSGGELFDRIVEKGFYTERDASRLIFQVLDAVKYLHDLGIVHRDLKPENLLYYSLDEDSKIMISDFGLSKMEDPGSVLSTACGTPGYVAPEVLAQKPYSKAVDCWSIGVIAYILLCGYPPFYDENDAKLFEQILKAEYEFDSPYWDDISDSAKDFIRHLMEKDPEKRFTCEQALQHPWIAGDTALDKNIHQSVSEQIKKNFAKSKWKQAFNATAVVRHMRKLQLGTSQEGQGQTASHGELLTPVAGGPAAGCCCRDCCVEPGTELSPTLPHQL

[20] = molecular target: Fibroblast growth factor receptor 1 (Homo sapiens) (UniProt P11362); details: Compound concentration 1000.0 nM
[21] = molecular target: Myosin light chain kinase, smooth muscle (Homo sapiens) (UniProt Q15746); details: Compound concentration 1000.0 nM
[22] = system: Hepatocyte growth factor receptor (Homo sapiens), P08581 [M1250T]; details: Compound concentration 1000.0 nM
[23] = molecular target: Ephrin type-A receptor 2 (Homo sapiens) (UniProt P29317); details: Compound concentration 1000.0 nM
[24] = molecular target: Cyclin-dependent kinase 5 (Homo sapiens) (UniProt Q00535); details: Compound concentration 1000.0 nM
[25] = molecular target: Dual specificity protein kinase CLK2 (Homo sapiens) (UniProt P49760); details: Compound concentration 1000.0 nM
Sequence of Dual specificity protein kinase CLK2 (Homo sapiens) (P49760 whole entry, looked up): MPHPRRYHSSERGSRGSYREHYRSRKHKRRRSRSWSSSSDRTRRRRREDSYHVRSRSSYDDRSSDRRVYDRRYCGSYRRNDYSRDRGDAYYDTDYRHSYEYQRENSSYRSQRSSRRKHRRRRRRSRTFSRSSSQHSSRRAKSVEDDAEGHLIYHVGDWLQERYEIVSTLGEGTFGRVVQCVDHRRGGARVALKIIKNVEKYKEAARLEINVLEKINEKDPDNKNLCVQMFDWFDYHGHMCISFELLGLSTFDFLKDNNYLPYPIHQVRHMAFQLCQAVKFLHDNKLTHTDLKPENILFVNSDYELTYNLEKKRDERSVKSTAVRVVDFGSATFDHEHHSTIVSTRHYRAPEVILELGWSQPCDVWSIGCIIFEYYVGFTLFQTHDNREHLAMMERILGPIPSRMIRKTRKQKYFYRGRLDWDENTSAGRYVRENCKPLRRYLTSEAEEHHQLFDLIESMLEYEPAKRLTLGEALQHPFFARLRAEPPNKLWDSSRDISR

[26] = molecular target: Tyrosine-protein kinase Yes (Homo sapiens) (UniProt P07947); details: Compound concentration 1000.0 nM
[27] = molecular target: Serine/threonine-protein kinase ULK1 (Homo sapiens) (UniProt O75385); details: Compound concentration 1000.0 nM
[28] = molecular target: Casein kinase II subunit alpha' (Homo sapiens) (UniProt P19784); details: Compound concentration 1000.0 nM
Sequence of Casein kinase II subunit alpha' (Homo sapiens) (P19784 whole entry, looked up): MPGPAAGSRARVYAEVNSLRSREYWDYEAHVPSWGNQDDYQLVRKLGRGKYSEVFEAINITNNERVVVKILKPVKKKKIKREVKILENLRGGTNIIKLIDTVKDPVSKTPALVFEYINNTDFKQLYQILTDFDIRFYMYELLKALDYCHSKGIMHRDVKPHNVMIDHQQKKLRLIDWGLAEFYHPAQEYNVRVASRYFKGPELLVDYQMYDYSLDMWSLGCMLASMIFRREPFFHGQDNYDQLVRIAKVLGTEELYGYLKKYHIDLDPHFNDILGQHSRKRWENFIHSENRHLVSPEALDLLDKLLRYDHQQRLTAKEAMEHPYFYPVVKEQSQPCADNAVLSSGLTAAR

[29] = molecular target: Tyrosine-protein kinase Fgr (Homo sapiens) (UniProt P09769); details: Compound concentration 1000.0 nM
[30] = molecular target: Cyclin-dependent kinase-like 1 (Homo sapiens) (UniProt Q00532); details: Compound concentration 1000.0 nM
[31] = molecular target: Rho-associated protein kinase 1 (Homo sapiens) (UniProt Q13464); details: Compound concentration 1000.0 nM
[32] = molecular target: 5-hydroxytryptamine receptor 1E (Homo sapiens) (UniProt P28566); details: Compound concentration 10.0 uM
[33] = molecular target: Insulin receptor-related protein (Homo sapiens) (UniProt P14616); details: Compound concentration 1000.0 nM
[34] = molecular target: Calcium/calmodulin-dependent protein kinase type IV (Homo sapiens) (UniProt Q16566); details: Compound concentration 1000.0 nM
[35] = molecular target: Serine/threonine-protein kinase TBK1 (Homo sapiens) (UniProt Q9UHD2); details: Compound concentration 1000.0 nM
[36] = molecular target: Cyclin-dependent kinase 4 (Homo sapiens) (UniProt P11802); details: Compound concentration 1000.0 nM
[37] = molecular target: Serine/threonine-protein kinase 26 (Homo sapiens) (UniProt Q9P289); details: Compound concentration 1000.0 nM
[38] = molecular target: Serine/threonine-protein kinase 32C (Homo sapiens) (UniProt Q86UX6); details: Compound concentration 1000.0 nM
[39] = molecular target: 5-hydroxytryptamine receptor 2B (Homo sapiens) (UniProt P41595); details: Compound concentration 10.0 uM
[40] = molecular target: Dual serine/threonine and tyrosine protein kinase (Homo sapiens) (UniProt Q6XUX3); details: Compound concentration 1000.0 nM
[41] = molecular target: Homeodomain-interacting protein kinase 4 (Homo sapiens) (UniProt Q8NE63); details: Compound concentration 1000.0 nM
Sequence of Homeodomain-interacting protein kinase 4 (Homo sapiens) (Q8NE63 whole entry): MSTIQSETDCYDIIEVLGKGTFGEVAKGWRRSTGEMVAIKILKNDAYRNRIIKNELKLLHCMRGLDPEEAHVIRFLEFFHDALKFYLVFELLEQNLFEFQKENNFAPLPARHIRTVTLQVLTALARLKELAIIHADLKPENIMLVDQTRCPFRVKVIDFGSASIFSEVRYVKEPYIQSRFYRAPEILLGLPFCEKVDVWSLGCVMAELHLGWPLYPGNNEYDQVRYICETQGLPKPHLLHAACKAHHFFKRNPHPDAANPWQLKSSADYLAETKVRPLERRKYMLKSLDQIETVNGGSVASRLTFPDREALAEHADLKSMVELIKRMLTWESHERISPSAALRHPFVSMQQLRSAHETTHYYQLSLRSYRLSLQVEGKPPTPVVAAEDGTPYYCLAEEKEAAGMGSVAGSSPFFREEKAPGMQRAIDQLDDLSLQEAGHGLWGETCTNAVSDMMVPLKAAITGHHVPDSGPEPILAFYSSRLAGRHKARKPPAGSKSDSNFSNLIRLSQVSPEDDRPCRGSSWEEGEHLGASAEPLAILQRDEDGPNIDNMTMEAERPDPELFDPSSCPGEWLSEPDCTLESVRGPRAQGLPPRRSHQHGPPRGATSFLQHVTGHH

[42] = molecular target: Tyrosine-protein kinase BTK (Homo sapiens) (UniProt Q06187); details: Compound concentration 1000.0 nM
[43] = molecular target: Proto-oncogene tyrosine-protein kinase Src (Homo sapiens) (UniProt P12931); details: Compound concentration 1000.0 nM
[44] = system: Receptor-type tyrosine-protein kinase FLT3 (Homo sapiens), P36888 [R834Q]; details: Compound concentration 1000.0 nM
[45] = molecular target: Tyrosine-protein kinase ZAP-70 (Homo sapiens) (UniProt P43403); details: Compound concentration 1000.0 nM

Cc1c(C(=O)O)cc(-c2ccc(C3CCNCC3)cc2)c2ccc(-c3ccc(C(F)(F)F)cc3)cc12 [PPTN-NC]
inactive: residual activity [1] 100% | residual activity [2] 100% | inhibition [3] 29.2% | residual activity [4] 100% | residual activity [5] 100% | residual activity [6] 100% | inhibition [7] 13.5% | residual activity [8] 95% | residual activity [9] 100% | residual activity [10] 100% | residual activity [11] 100% | residual activity [12] 100% | residual activity [13] 80% | inhibition [14] -0.81% | residual activity [15] 100% | residual activity [16] 100% | residual activity [17] 100% | residual activity [18] 100% | residual activity [19] 100% | residual activity [20] 100% | residual activity [21] 82% | residual activity [22] 97% | residual activity [23] 100% | residual activity [24] 100% | residual activity [25] 100% | residual activity [26] 100% | residual activity [27] 100% | residual activity [28] 100% | residual activity [29] 100% | residual activity [30] 82% | residual activity [31] 100% | inhibition [32] 3.48% | residual activity [33] 100% | residual activity [34] 100% | residual activity [35] 73% | residual activity [36] 100% | residual activity [37] 100% | residual activity [38] 100% | inhibition [39] 6.6% | residual activity [40] 100% | residual activity [41] 100% | residual activity [42] 94% | residual activity [43] 100% | residual activity [44] 100% | residual activity [45] 100%

O=C(O)c1cc(-c2ccc(C3CCNCC3)cc2)c2ccc(-c3ccc(C(F)(F)F)cc3)cc2c1 [PPTN]
inactive: residual activity [1] 100% | residual activity [2] 100% | inhibition [3] 24.7% | residual activity [4] 100% | residual activity [5] 93% | residual activity [6] 100% | inhibition [7] 5.62% | residual activity [8] 100% | residual activity [9] 100% | residual activity [10] 96% | residual activity [11] 100% | residual activity [12] 100% | residual activity [13] 86% | inhibition [14] 4.98% | residual activity [15] 100% | residual activity [16] 100% | residual activity [17] 100% | residual activity [18] 88% | residual activity [19] 100% | residual activity [20] 100% | residual activity [21] 85% | residual activity [22] 86% | residual activity [23] 100% | residual activity [24] 100% | residual activity [25] 100% | residual activity [26] 100% | residual activity [27] 100% | residual activity [28] 100% | residual activity [29] 100% | residual activity [30] 93% | residual activity [31] 100% | inhibition [32] 13.4% | residual activity [33] 100% | residual activity [34] 100% | residual activity [35] 80% | residual activity [36] 100% | residual activity [37] 100% | residual activity [38] 100% | inhibition [39] 7.95% | residual activity [40] 100% | residual activity [41] 100% | residual activity [42] 96% | residual activity [43] 100% | residual activity [44] 100% | residual activity [45] 100%
